[invAb] = inverted abasic unit; m = 2'-O-methyl; r = 2'-OH (RNA); f = 2'-fluoro
What was measured:
CTGF mRNA [1] = assay: CTGF mRNA knockdown (Taqman RT-PCR) after siNA transfection of mouse NIH 3T3 cells; type: cell-based; conditions: mouse NIH3T3 cells, 10 nM siNA, 24 hrs, average of 3 experiments, vs non-targeting control
Procedure: NIH 3T3 (mouse; ATCC cat# CRL-1658): Cells were cultured at 37° C. in the presence of 5% CO2 and grown in Dulbecco's modified Eagle's medium (DMEM) with 4 mM L-glutamine adjusted to contain 1.5 g/L sodium bicarbonate and 4.5 g/L glucose and supplemented with fetal bovine serum at a final concentration of 10%, 100 μg/mL of streptomycin, and 100 U/mL penicillin.
(§1) Cells were plated in all wells of a tissue-culture treated, 96-well plate at a final count of 5000 cells/well in […], of the appropriate culture media. The cells were cultured for 24 hours after plating at 37° C. in the presence of 5% CO2.
(§2) After 24 hours, complexes containing siNA and RNAiMax were created as follows: A solution of RNAiMax diluted 33-fold in OPTI-MEM was prepared. In parallel, solutions of the siNAs for testing were prepared to a final concentration of 120 nM in OPTI-MEM. After incubation of RNAiMax/OPTI-MEM solution at room temperature for 5 min, an equal volume of the siNA solution and the RNAiMax solution were added together for each of the siNAs.
(§3) This solution was incubated at room temperature for 20 minutes. After incubation, 20 uL of the solution was added to each of the relevant wells. The final concentration of siNA in each well was 10 nM and the final volume of RNAiMax in each well was 0.3 ul.
(§4) The time of incubation with the RNAiMax-siNA complexes was 24 hours and there was no change in media between transfection and harvesting, unless otherwise indicated.
(§5) RNA was extracted from a 96-well plate using the TaqMan® Gene Expression Cells-to-CT™ Kit (Cat# 4399002) with a modified protocol. Briefly, a 60 uL (1 plate) or 110 uL (2 plates) of the Lysis Solution with DNase I was dispensed into each well of the Lysis Buffer Plate (twin.tec full skirt plate). The lysis buffer and stop plates were stored at 4° C. until the cells were washed.
(§6) The plate was spun at 1100 rpm for 5 minutes. The culture medium was aspirated and discarded from the wells of the culture plate. The lysis was performed automatically using a BioMek FX instrument and method. After the Biomek method was completed, the lysis plate was incubated for 2 min. at room temperature. The lysis plate can be stored for 2 hours at 4° C., or at −20° C. or −80° C. for two months.
(§7) Each well of the reverse transcription plate required 10 uL of 2× reverse transcriptase Buffer, 1 uL of 20× reverse transcription enzyme and 2 uL of nuclease-free water. The reverse transcription master mix was prepared by mixing 2× reverse transcription buffer, 20× reverse transcription enzyme mix, and nuclease-free water. 13 uL of the reverse transcription master mix was dispensed into each well of the reverse transcription plate (semi-skirted). A separate reverse transcription plate was prepared for each cell plate. The plate was loaded onto a Biomek NX or Biomek FX Dual -96 and the Biomek method was run. The program is programmed to automatically added 7 uL of lysate from the cell lysis procedure described above into each well of the reverse transcription plate. The plate is sealed and spun on a centrifuge (1000 rpm for 30 seconds) to settle the contents to the bottom of the reverse transcription plate. The plate is placed in a thermocycler at 37° C. for 60 min, 95° C. for 5 min, and 4° C. until the plate is removed from the thermocycler. Upon removal, if not used immediately, the plate was frozen at −20° C.
(§8) A series of probes and primers were used to detect the various mRNA transcripts of the genes of β-Actin (human cell line only), and of CTGF and GAPDH in mouse and human cell lines. All Taqman probes and primers for the experiments here-in described were supplied as pre-validated sets by Applied Biosystems, Inc. (see Table 3).
The assays were performed on an ABI 7900 instrument, according to the manufacturer's instructions. A TaqMan Gene Expression Master Mix (provided in the Cells-to-CT™, Applied Biosystems, Cat # 4399002) was used. […]

CTGF mRNA [2] = assay: CTGF mRNA knockdown (Taqman RT-PCR) after siNA transfection of human NHLF cells; type: cell-based; conditions: 10 nM siNA, 24 hrs, average of 3 experiments, vs non-targeting control
Procedure: NHLF (Normal human lung fibroblasts; Lonza cat# CC-2512): Cells were cultured at 37° C. in the presence of 5% CO2 and grown in Fibroblast Basal Medium (Lonza cat# CC-3132) supplemented with 2% FBS and growth factors (provided with the kit) and 100 μg/mL of streptomycin and 100 U/mL penicillin.
as §1, §2, §3, §4, §5, §6, §7, §8
The assays were performed on an ABI 7900 instrument, according to the manufacturer's instructions. A TaqMan Gene Expression Master Mix (provided in the Cells-to-CT™, Applied Biosystems, Cat # 4399002) was used. The PCR reactions were carried out at 50° C. for 2 min, 95° C. for 20 min followed by 40 cycles at 95° C. for 15 secs and 60° C. for 1 min. […]

Substance | % KD Mouse (CTGF mRNA [1]) [%] | % KD Human (CTGF mRNA [2]) [%]
48071-DC: siNA duplex; sense SEQ ID NO: 107 B ccAAcuAuGAuGcGAGccA TTB; antisense SEQ ID NO: 108 UGGcucGcAucAuAGuuGGUU (sense CCAACUAUGAUGCGAGCCATT; antisense UGGCUCGCAUCAUAGUUGGUU; sense: DNA at AGT, 2'-fluoro at CU, [invAb] at 5' end, 3' end, backbone not given here; antisense: sugars from the 5' end rrrfffmfmffmfmmffmmmm, backbone not given here) | 21 ± 5 | 30 ± 15
48061-DC: siNA duplex; sense SEQ ID NO: 87 B AcucAuuAGAcuAuAAcuu TTB; antisense SEQ ID NO: 88 AAGuuAuAGucuAAuGAGuUU (sense ACUCAUUAGACUAUAACUUTT; antisense AAGUUAUAGUCUAAUGAGUUU; sense: DNA at AGT, 2'-fluoro at CU, [invAb] at 5' end, 3' end, backbone not given here; antisense: sugars from the 5' end rrrffmfmmfffmmfmmmfmm, backbone not given here) | 73 ± 5 | 30 ± 12
48054-DC: siNA duplex; sense SEQ ID NO: 73 B GAcuuGAcAGuGGAAcuAc TTB; antisense SEQ ID NO: 74 GUAGuuccAcuGucAAGucUU (sense GACUUGACAGUGGAACUACTT; antisense GUAGUUCCACUGUCAAGUCUU; sense: DNA at AGT, 2'-fluoro at CU, [invAb] at 5' end, 3' end, backbone not given here; antisense: sugars from the 5' end rrrmffffmffmffmmmffmm, backbone not given here) | 17 ± 3 | 70 ± 5
48068-DC: siNA duplex; sense SEQ ID NO: 101 B uGGuuucGAGAcAGuuuAc TTB; antisense SEQ ID NO: 102 GUAAAcuGucucGAAAccAUU (sense UGGUUUCGAGACAGUUUACTT; antisense GUAAACUGUCUCGAAACCAUU; sense: DNA at AGT, 2'-fluoro at CU, [invAb] at 5' end, 3' end, backbone not given here; antisense: sugars from the 5' end rrrmmffmffffmmmmffmmm, backbone not given here) | 65 ± 3 | 12 ± 22
48079-DC: siNA duplex; sense SEQ ID NO: 123 B ucAAGAccuGuGccuGccA TTB; antisense SEQ ID NO: 124 UGGcAGGcAcAGGucuuGAUU (sense UCAAGACCUGUGCCUGCCATT; antisense UGGCAGGCACAGGUCUUGAUU; sense: DNA at AGT, 2'-fluoro at CU, [invAb] at 5' end, 3' end, backbone not given here; antisense: sugars from the 5' end rrrfmmmfmfmmmffffmmmm, backbone not given here) | 17 ± 6 | 21 ± 11
48077-DC: siNA duplex; sense SEQ ID NO: 119 B AGGAAGuAAGGGAcAcGAA TTB; antisense SEQ ID NO: 120 UUCGuGucccuuAcuuccuUU (sense AGGAAGUAAGGGACACGAATT; antisense UUCGUGUCCCUUACUUCCUUU; sense: DNA at AGT, 2'-fluoro at CU, [invAb] at 5' end, 3' end, backbone not given here; antisense: sugars from the 5' end rrrmfmffffffmffffffmm, backbone not given here) | 71 ± 4 | 19 ± 2
48040-DC: siNA duplex; sense SEQ ID NO: 45 B GAGuGGAGcGccuGuuccA TTB; antisense SEQ ID NO: 46 UGGAAcAGGcGcuccAcucUU (sense GAGUGGAGCGCCUGUUCCATT; antisense UGGAACAGGCGCUCCACUCUU; sense: DNA at AGT, 2'-fluoro at CU, [invAb] at 5' end, 3' end, backbone not given here; antisense: sugars from the 5' end rrrmmfmmmfmffffmfffmm, backbone not given here) | −1 ± 3 | 13 ± 18
48065-DC: siNA duplex; sense SEQ ID NO: 95 B GccuGucAAGuuuGAGcuu TTB; antisense SEQ ID NO: 96 AAGcucAAAcuuGAcAGGcUU (sense GCCUGUCAAGUUUGAGCUUTT; antisense AAGCUCAAACUUGACAGGCUU; sense: DNA at AGT, 2'-fluoro at CU, [invAb] at 5' end, 3' end, backbone not given here; antisense: sugars from the 5' end rrrfffmmmfffmmfmmmfmm, backbone not given here) | 46 ± 7 | 19 ± 6
48080-DC: siNA duplex; sense SEQ ID NO: 125 B AGGAAGAuGuAcGGAGAcA TTB; antisense SEQ ID NO: 126 UGUcuccGuAcAucuuccuUU (sense AGGAAGAUGUACGGAGACATT; antisense UGUCUCCGUACAUCUUCCUUU; sense: DNA at AGT, 2'-fluoro at CU, [invAb] at 5' end, 3' end, backbone not given here; antisense: sugars from the 5' end rrrffffmfmfmfffffffmm, backbone not given here) | 56 ± 2 | 71 ± 2
48063-DC: siNA duplex; sense SEQ ID NO: 91 B AcAcGAAcucAuuAGAcuA TTB; antisense SEQ ID NO: 92 UAGucuAAuGAGuucGuGuUU (sense ACACGAACUCAUUAGACUATT; antisense UAGUCUAAUGAGUUCGUGUUU; sense: DNA at AGT, 2'-fluoro at CU, [invAb] at 5' end, 3' end, backbone not given here; antisense: sugars from the 5' end rrrfffmmfmmmfffmfmfmm, backbone not given here) | 84 ± 2 | 59 ± 3
48070-DC: siNA duplex; sense SEQ ID NO: 105 B AcuGGuuucGAGAcAGuuu TTB; antisense SEQ ID NO: 106 AAAcuGucucGAAAccAGuUU (sense ACUGGUUUCGAGACAGUUUTT; antisense AAACUGUCUCGAAACCAGUUU; sense: DNA at AGT, 2'-fluoro at CU, [invAb] at 5' end, 3' end, backbone not given here; antisense: sugars from the 5' end rrrffmffffmmmmffmmfmm, backbone not given here) | 56 ± 2 | 9 ± 21

— patent publication US20120016011A1, “RNA Interference Mediated Inhibition of Connective Tissue Growth Factor (CTGF) Gene Expression Using Short Interfering Nucleic Acid (siNA)” (Merck Sharp & Dohme Corp., priority 2009, published 2012)
